In PubChem BioAssay AID1963874 (Molecular Pharmacology Branch, DTP, NCI, 2024):

Test system: 253994-281-T-J1-PDC KRAS-mutant spheroids with HUVEC/MSC, viability
Assay: Anticancer human tumor 253994-281-T-J1-PDC patient-derived colorectal carcinoma cell line growth inhibition [KRAS2]
Settings: for viability, T/C: stronger effect = lower value
Procedure, shortened: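 Combination screen of spheroid viability in tumor-cell co-cultures with endothelial (HUVEC) and mesenchymal stem cell stroma. Each agent was tested in half-log dilutions, topping at clinical Cmax or at 10 microM without a known Cmax.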

[1] = curve of first compound, second compound 0.1 µM
[2] = curve of first compound, second compound 0.316 µM
[3] = curve of first compound, second compound 1 µM
[4] = curve of first compound, second compound 3.16 µM
[5] = curve of first compound, second compound 10 µM
[6] = second compound 0.1 µM, first compound 0.0316 µM
[7] = second compound 0.1 µM, first compound 0.1 µM
[8] = second compound 0.1 µM, first compound 0.316 µM
[9] = second compound 0.1 µM, first compound 1 µM
[10] = second compound 0.1 µM, first compound 3.16 µM
[11] = second compound 0.1 µM, first compound 10 µM
[12] = second compound 0.316 µM, first compound 0.0316 µM
[13] = second compound 0.316 µM, first compound 0.1 µM
[14] = second compound 0.316 µM, first compound 0.316 µM
[15] = second compound 0.316 µM, first compound 1 µM
[16] = second compound 0.316 µM, first compound 3.16 µM
[17] = second compound 0.316 µM, first compound 10 µM
[18] = second compound 1 µM, first compound 0.0316 µM
[19] = second compound 1 µM, first compound 0.1 µM
[20] = second compound 1 µM, first compound 0.316 µM
[21] = second compound 1 µM, first compound 1 µM
[22] = second compound 1 µM, first compound 3.16 µM
[23] = second compound 1 µM, first compound 10 µM
[24] = second compound 3.16 µM, first compound 0.0316 µM
[25] = second compound 3.16 µM, first compound 0.1 µM
[26] = second compound 3.16 µM, first compound 0.316 µM
[27] = second compound 3.16 µM, first compound 1 µM
[28] = second compound 3.16 µM, first compound 3.16 µM
[29] = second compound 3.16 µM, first compound 10 µM
[30] = second compound 10 µM, first compound 0.0316 µM
[31] = second compound 10 µM, first compound 0.1 µM
[32] = second compound 10 µM, first compound 0.316 µM
[33] = second compound 10 µM, first compound 1 µM
[34] = second compound 10 µM, first compound 3.16 µM
[35] = second compound 10 µM, first compound 10 µM
[36] = curve of first compound, second compound 0.0316 µM
[37] = second compound 0.0316 µM, first compound 0.01 µM
[38] = second compound 0.0316 µM, first compound 0.0316 µM
[39] = second compound 0.0316 µM, first compound 0.1 µM
[40] = second compound 0.1 µM, first compound 0.01 µM
[41] = second compound 0.316 µM, first compound 0.01 µM
[42] = second compound 1 µM, first compound 0.01 µM
[43] = second compound 3.16 µM, first compound 0.01 µM
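Note: spheroids exposed to agents for seven days before readout.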
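Throughout, for viability, T/C: percent of DMSO vehicle control viability.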

COc1cc2nccc(Oc3ccc(NC(=O)C4(C(=O)Nc5ccc(F)cc5)CC4)cc3)c2cc1OC + CNCc1ccccc1-c1csc(C(C)Nc2nc(C)nc3cc(OC)c(OC)cc23)c1
IC50 [1]: > 10000 nM
IC50 [2]: 5300 nM
IC50 [3]: 3470 nM
IC50 [4]: < 31.6 nM
IC50 [5]: < 31.6 nM
viability, T/C [6]: 99.4%
viability, T/C [7]: 99.1%
viability, T/C [8]: 83.8%
viability, T/C [9]: 85%
viability, T/C [10]: 94.5%
viability, T/C [11]: 61.1%
viability, T/C [12]: 98.2%
viability, T/C [13]: 92%
viability, T/C [14]: 84.9%
viability, T/C [15]: 96.6%
viability, T/C [16]: 68%
viability, T/C [17]: 28%
viability, T/C [18]: 93.3%
viability, T/C [19]: 87.4%
viability, T/C [20]: 85.1%
viability, T/C [21]: 85.7%
viability, T/C [22]: 53.9%
viability, T/C [23]: 5.85%
viability, T/C [24]: 43.2%
viability, T/C [25]: 45.6%
viability, T/C [26]: 49.7%
viability, T/C [27]: 25%
viability, T/C [28]: 12.3%
viability, T/C [29]: 0.16%
viability, T/C [30]: 0.13%
viability, T/C [31]: 0.14%
viability, T/C [32]: 0.13%
viability, T/C [33]: 0.13%
viability, T/C [34]: 0.29%
viability, T/C [35]: 0.16%

CC(=O)OC12COC1CC(O)C1(C)C(=O)C(O)C3=C(C)C(OC(=O)C(O)C(NC(=O)OC(C)(C)C)c4ccccc4)CC(O)(C(OC(=O)c4ccccc4)C21)C3(C)C (stereo not drawn) + C=CC(=O)N1CCN(c2nc(OCC3CCCN3C)nc3c2CCN(c2cccc4cccc(C)c24)C3)CC1CC#N
IC50 [36]: 32.8 nM
IC50 [1]: 28 nM
IC50 [2]: 27.6 nM
IC50 [3]: 27.6 nM
IC50 [4]: 27.3 nM
viability, T/C [37]: 96.4%
viability, T/C [38]: 50.4%
viability, T/C [39]: 33.6%
viability, T/C (second compound 0.0316 µM, first compound 0.316 µM): 28.1%
viability, T/C (second compound 0.0316 µM, first compound 1 µM): 28%
viability, T/C (second compound 0.0316 µM, first compound 3.16 µM): 33.7%
viability, T/C [40]: 80.4%
viability, T/C [6]: 46.6%
viability, T/C [7]: 31.7%
viability, T/C [8]: 40%
viability, T/C [9]: 27.6%
viability, T/C [10]: 28%
viability, T/C [41]: 85.4%
viability, T/C [12]: 44.5%
viability, T/C [13]: 33.5%
viability, T/C [14]: 29%
viability, T/C [15]: 27.2%
viability, T/C [16]: 26.4%
viability, T/C [42]: 77.7%
viability, T/C [18]: 46.3%
viability, T/C [19]: 28.9%
viability, T/C [20]: 26%
viability, T/C [21]: 28.1%
viability, T/C [22]: 29.5%
viability, T/C [43]: 79.3%
viability, T/C [24]: 45.7%
viability, T/C [25]: 31.4%
viability, T/C [26]: 27.5%
viability, T/C [27]: 29.3%
viability, T/C [28]: 28.1%

COc1cc(Nc2ncc3c(n2)-c2ccc(Cl)cc2C(c2c(F)cccc2OC)=NC3)ccc1C(=O)O + CC1OCC2(CCN(c3cnc(Sc4ccnc(N)c4Cl)c(N)n3)CC2)C1N
IC50 [1]: < 31.6 nM
IC50 [2]: < 31.6 nM
IC50 [3]: < 31.6 nM
IC50 [4]: < 31.6 nM
IC50 [5]: < 31.6 nM
viability, T/C [6]: 51%
viability, T/C [7]: 25.3%
viability, T/C [8]: 24.6%
viability, T/C [9]: 28.7%
viability, T/C [10]: 40.4%
viability, T/C [11]: 42.6%
viability, T/C [12]: 34.6%
viability, T/C [13]: 21.5%
viability, T/C [14]: 22%
viability, T/C [15]: 26%
viability, T/C [16]: 25.8%
viability, T/C [17]: 23.7%
viability, T/C [18]: 23.4%
viability, T/C [19]: 16.7%
viability, T/C [20]: 17.7%
viability, T/C [21]: 19.6%
viability, T/C [22]: 18.7%
viability, T/C [23]: 20.1%
viability, T/C [24]: 19.5%
viability, T/C [25]: 14.2%
viability, T/C [26]: 14.1%
viability, T/C [27]: 18.5%
viability, T/C [28]: 14.2%
viability, T/C [29]: 21%
viability, T/C [30]: 13.3%
viability, T/C [31]: 12.5%
viability, T/C [32]: 10.3%
viability, T/C [33]: 9.72%
viability, T/C [34]: 10.8%
viability, T/C [35]: 9.48%

O=C(c1cc(Cc2n[nH]c(=O)c3ccccc23)ccc1F)N1CCN(C(=O)C2CC2)CC1
viability, T/C (compound 0.0316 µM): 103% [middle of 5 runs]
viability, T/C (compound 0.1 µM): 93.8% [middle of 5 runs]
viability, T/C (compound 0.316 µM): 91.2% [middle of 5 runs]
viability, T/C (compound 1 µM): 95.1% [middle of 5 runs]
viability, T/C (compound 3.16 µM): 93.6% [middle of 5 runs]
viability, T/C (compound 10 µM): 89.7% [middle of 5 runs]
IC50 (curve of compound): > 10000 nM

Cn1ncnc1[C@H]1c2n[nH]c(=O)c3cc(F)cc(c23)N[C@@H]1c1ccc(F)cc1 + C=CC(=O)N1CCN(c2nc(OCC3CCCN3C)nc3c2CCN(c2cccc4cccc(C)c24)C3)CC1CC#N
IC50 [36]: > 100 nM
IC50 [1]: > 100 nM
IC50 [2]: > 100 nM
IC50 [3]: > 100 nM
IC50 [4]: 0.431 nM
viability, T/C (second compound 0.0316 µM, first compound 0.000316 µM): 93.7%
viability, T/C (second compound 0.0316 µM, first compound 0.001 µM): 93.7%
viability, T/C (second compound 0.0316 µM, first compound 0.00316 µM): 96.8%
viability, T/C [37]: 105%
viability, T/C [38]: 100%
viability, T/C [39]: 92.8%
viability, T/C (second compound 0.1 µM, first compound 0.000316 µM): 94.8%
viability, T/C (second compound 0.1 µM, first compound 0.001 µM): 93.1%
viability, T/C (second compound 0.1 µM, first compound 0.00316 µM): 96.7%
viability, T/C [40]: 86.8%
viability, T/C [6]: 97.2%
viability, T/C [7]: 92.8%
viability, T/C (second compound 0.316 µM, first compound 0.000316 µM): 95.8%
viability, T/C (second compound 0.316 µM, first compound 0.001 µM): 105%
viability, T/C (second compound 0.316 µM, first compound 0.00316 µM): 98.4%
viability, T/C [41]: 88.4%
viability, T/C [12]: 96.2%
viability, T/C [13]: 84.1%
viability, T/C (second compound 1 µM, first compound 0.000316 µM): 96.8%
viability, T/C (second compound 1 µM, first compound 0.001 µM): 86.7%
viability, T/C (second compound 1 µM, first compound 0.00316 µM): 91.8%
viability, T/C [42]: 88.9%
viability, T/C [18]: 93.4%
viability, T/C [19]: 85.7%
viability, T/C (second compound 3.16 µM, first compound 0.000316 µM): 53.9%
viability, T/C (second compound 3.16 µM, first compound 0.001 µM): 39.2%
viability, T/C (second compound 3.16 µM, first compound 0.00316 µM): 28.2%
viability, T/C [43]: 13.3%
viability, T/C [24]: 21%
viability, T/C [25]: 17.7%

CCNC(=O)CC1N=C(c2ccc(Cl)cc2)c2cc(OC)ccc2-n2c(C)nnc21 (stereo not drawn)
viability, T/C (compound 0.0316 µM): 105% [middle of 5 runs]
viability, T/C (compound 0.1 µM): 103% [middle of 5 runs]
viability, T/C (compound 0.316 µM): 95.6% [middle of 5 runs]
viability, T/C (compound 1 µM): 96.3% [middle of 5 runs]
viability, T/C (compound 3.16 µM): 97.5% [middle of 5 runs]
viability, T/C (compound 10 µM): 85.7% [middle of 5 runs]
IC50 (curve of compound): > 10000 nM

CC(=O)Nc1cccc(-n2c(=O)n(C3CC3)c(=O)c3c(Nc4ccc(I)cc4F)n(C)c(=O)c(C)c32)c1
viability, T/C (compound 0.0001 µM): 94.1% [middle of 5 runs]
viability, T/C (compound 0.000316 µM): 84.7% [middle of 5 runs]
viability, T/C (compound 0.001 µM): 56.3% [middle of 5 runs]
viability, T/C (compound 0.00316 µM): 27.5% [middle of 5 runs]
viability, T/C (compound 0.01 µM): 15.5% [middle of 5 runs]
viability, T/C (compound 0.0316 µM): 6.86% [middle of 5 runs]
IC50 (curve of compound): 1.3 nM [middle of 5 runs]

COc1cc(OC)cc(N(CCNC(C)C)c2ccc3ncc(-c4cnn(C)c4)nc3c2)c1
viability, T/C (compound 0.0316 µM): 98.1% [middle of 5 runs]
viability, T/C (compound 0.1 µM): 92% [middle of 5 runs]
viability, T/C (compound 0.316 µM): 92.8% [middle of 5 runs]
viability, T/C (compound 1 µM): 88.1% [middle of 5 runs]
viability, T/C (compound 3.16 µM): 89.4% [middle of 5 runs]

CC(C)n1nc(-c2ccc3oc(N)nc3c2)c2c(N)ncnc21
viability, T/C (compound 0.000316 µM): 94.6% [middle of 5 runs]
viability, T/C (compound 0.001 µM): 91.2% [middle of 5 runs]
viability, T/C (compound 0.00316 µM): 88.7% [middle of 5 runs]
viability, T/C (compound 0.01 µM): 83% [middle of 5 runs]
viability, T/C (compound 0.0316 µM): 80.2% [middle of 5 runs]
viability, T/C (compound 0.1 µM): 58.8% [middle of 5 runs]
IC50 (curve of compound): > 100 nM
